# Laboratory results: US10647694B2, “Diphenylaminopyrimidine and triazine compound, and pharmaceutical composition and use thereof” (ARROMAX PHARMATECH CO., LTD., priority 2016, dated 2020)
# Biological target: ALK enzyme (Homo sapiens, UniProt Q9UM73)
# Experiment: In-vitro ALK kinase inhibitory activity (HTRF kinEASE TK kit)
# Type: biochemical
# Conditions: inhibitory activity for ALK enzyme, read-out: IC50 range
# Procedure: Anaplastic Lymphoma Kinase (ALK) Inhibitory Activity The in-vitro kinase assay was performed using the HTRF kinEASE TK kit available from Cisbio. The operation steps are indicated in the instructions of the kit. This method was used to detect the inhibitory effect of the compound to be tested on the activity of ALK enzymes in vitro, including wild-type ALK (Cat.PV3867, Invitrogen), ALK L1196M (Cat. PV6168, Life technologies), and ALK F1174L (Cat. PV6160, Life technologies). The specific operation steps were as follows. […] In addition to the control wells, 4 μL of the diluted compound solution to be tested was added to the reaction wells, and 4 μL of the 2.5% DMSO solution corresponding to the ALK enzyme previously formulated was added to the control wells. (2) 2 μL of a TK-biotin substrate solution previously formulated in a substrate concentration corresponding to the ALK enzyme was added to all reaction wells. (3) 2 μL of a previously prepared enzyme solution of corresponding concentration was added to all the reaction wells except the negative wells, and 2 μL of the 1× kinase buffer corresponding to the enzyme was added to the negative wells to make up the volume. The plate was sealed with a membrane, and incubated for 10 min at room temperature after mixing uniformly, such that the compounds were bond to the enzyme fully. (4) 2 μL of an ATP solution in a concentration corresponding to the ALK enzyme was added to all the reaction wells to initiate the kinase reaction, where the enzyme reaction time by ALK was 60 minutes. (5) An ALK test solution was prepared 5 minutes before the end of the kinase reaction. Streptavidin-XL665 and TK antibody europium cryptate (1:100) solutions for assay having a concentration corresponding to the enzyme were prepared using the detection buffer in the kit. (6) After the completion of the kinase reaction, 5 μl of diluted Streptavidin-XL665 was added to all the reaction wells respectively, and mixed uniformly, and then the diluted TK antibody europium cryptate solution for assay was added immediately. (7) The plate was sealed, mixed uniformly and allowed to react at room temperature for 1 h. The fluorescence signal (excitation at 320 nm, and emission at 665 nm and 615 nm) was detected using the ENVISION instrument (Perkinelmer). The inhibition rate for each well was calculated from the values of the fully active wells and the background signal wells. The values of replicated wells were averaged, and the half-maximal inhibitory activity (IC50) of each compound to be tested was fitted with a professional drawing analysis software PRISM 5.0.
# ALK enzyme, sequence (Q9UM73 19-1620 limits assumed): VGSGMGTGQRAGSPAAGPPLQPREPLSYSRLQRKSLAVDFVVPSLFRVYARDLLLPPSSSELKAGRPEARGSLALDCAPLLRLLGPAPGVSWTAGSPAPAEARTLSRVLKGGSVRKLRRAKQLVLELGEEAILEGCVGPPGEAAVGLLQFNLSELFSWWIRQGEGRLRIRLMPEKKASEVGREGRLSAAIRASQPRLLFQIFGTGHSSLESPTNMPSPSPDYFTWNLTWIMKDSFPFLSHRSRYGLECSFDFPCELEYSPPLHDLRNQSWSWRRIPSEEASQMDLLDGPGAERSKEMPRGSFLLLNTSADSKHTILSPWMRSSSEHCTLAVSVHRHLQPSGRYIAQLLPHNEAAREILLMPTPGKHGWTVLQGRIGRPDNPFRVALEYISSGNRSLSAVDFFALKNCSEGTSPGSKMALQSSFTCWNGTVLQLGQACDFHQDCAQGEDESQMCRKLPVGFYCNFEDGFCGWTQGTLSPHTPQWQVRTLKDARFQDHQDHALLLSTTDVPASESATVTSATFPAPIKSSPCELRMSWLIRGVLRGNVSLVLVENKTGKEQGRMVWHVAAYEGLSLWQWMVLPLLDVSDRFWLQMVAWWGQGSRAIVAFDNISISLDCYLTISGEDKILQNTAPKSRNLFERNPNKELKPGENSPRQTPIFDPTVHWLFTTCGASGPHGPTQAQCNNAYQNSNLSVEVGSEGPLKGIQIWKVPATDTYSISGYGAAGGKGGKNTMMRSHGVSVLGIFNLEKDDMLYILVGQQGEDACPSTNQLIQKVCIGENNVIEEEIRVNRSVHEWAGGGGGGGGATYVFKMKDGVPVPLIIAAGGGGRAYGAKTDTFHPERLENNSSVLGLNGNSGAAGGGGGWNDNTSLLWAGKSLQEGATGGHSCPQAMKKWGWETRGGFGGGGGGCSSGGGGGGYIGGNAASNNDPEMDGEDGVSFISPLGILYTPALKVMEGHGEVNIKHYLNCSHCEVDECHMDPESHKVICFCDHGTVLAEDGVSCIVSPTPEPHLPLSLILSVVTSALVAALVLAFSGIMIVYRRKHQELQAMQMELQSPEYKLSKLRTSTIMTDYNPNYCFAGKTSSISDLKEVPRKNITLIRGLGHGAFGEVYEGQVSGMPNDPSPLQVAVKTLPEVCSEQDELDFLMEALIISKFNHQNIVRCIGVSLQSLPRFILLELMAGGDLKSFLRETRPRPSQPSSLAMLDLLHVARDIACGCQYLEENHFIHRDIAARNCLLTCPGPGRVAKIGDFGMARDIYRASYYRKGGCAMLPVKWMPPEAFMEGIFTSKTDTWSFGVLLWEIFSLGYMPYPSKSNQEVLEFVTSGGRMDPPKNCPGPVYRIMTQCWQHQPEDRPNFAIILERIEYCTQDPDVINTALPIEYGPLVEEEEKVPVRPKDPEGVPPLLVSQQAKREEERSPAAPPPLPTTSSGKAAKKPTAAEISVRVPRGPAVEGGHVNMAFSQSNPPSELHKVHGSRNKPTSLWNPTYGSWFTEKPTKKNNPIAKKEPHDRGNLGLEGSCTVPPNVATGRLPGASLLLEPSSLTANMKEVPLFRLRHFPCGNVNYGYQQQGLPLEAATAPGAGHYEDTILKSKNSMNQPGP
row,IC50,Structure (SMILES)
1,1 to 10 nM,"COc1cc(N2CCNCC2)c(C)cc1Nc1ncc(Cl)c(Nc2ccccc2S(=O)(=O)C(C)C)n1 [Compound I-17, 5-chloro-N4-(2-(isopropylsulfonyl)phenyl)-N2-(2-D3-methoxy-4-(piperazin-1-yl)-5-methyl-phenyl)pyrimidin-2,4-diamine]"
2,1 to 10 nM,"CCOc1cc(C2CCNCC2)ccc1Nc1ncc(Cl)c(Nc2ccccc2S(=O)(=O)C(C)C)n1 [Compound I-20, 5-chloro-N2-(2-D5-ethoxy-4-(piperidin-4-yl)phenyl)-N4-(2-(isopropylsulfonyl)phenyl)pyrimidin-2,4-diamine]"
3,10 to 100 nM,COc1cc(N2CCC(N3CCN(C)CC3)CC2)ccc1Nc1nc(Nc2ccccc2S(=O)(=O)C(C)C)c2cc[nH]c2n1 [Compound I-24]
4,1 to 10 nM,"CCOc1cc(C2CCNCC2)c(Cl)cc1Nc1ncc(Cl)c(Nc2ccccc2S(=O)(=O)C(C)C)n1 [Compound I-19, 5-chloro-N2-(5-chloro-2-D5-ethoxy-4-(piperidin-4-yl)phenyl)-N4-(2-(isopropylsulfonyl)phenyl)pyrimidin-2,4-diamine]"
5,10 to 100 nM,"COc1cc(C2CCNCC2)c(C)cc1Nc1nc(Nc2ccccc2S(=O)(=O)C(C)C)c2ccccc2n1 [Compound I-29, N4-(2-(isopropylsulfonyl)phenyl)-N2-(2-D3-methoxy-5-methyl-4-(piperidin-4-yl)phenyl)quinazolin-2,4-diamine]"
6,1 to 10 nM,"C=Cc1cnc(Nc2cc(C)c(C3CCNCC3)cc2OC)nc1Nc1ccccc1S(=O)(=O)C(C)C [Compound I-12, N4-(2-(isopropylsulfonyl)phenyl)-N2-(2-D3-methoxy-5-methyl-4-(piperidin-4-yl)phenyl)-5-ethenylpyrimidin-2,4-diamine]"
7,1 to 10 nM,"COc1cc(C2CCNCC2)c(C(F)(F)F)cc1Nc1ncc(Cl)c(Nc2ccccc2S(=O)(=O)C(C)C)n1 [Compound I-22, 5-chloro-N4-(2-(isopropylsulfonyl)phenyl)-N2-(2-D3-methoxy-4-(piperidin-4-yl)-5-(trifluoromethyl)phenyl)pyrimidin-2,4-diamine]"
8,10 to 100 nM,"COc1cc(C2CCNCC2)c(C)cc1Nc1nc(Nc2ccccc2S(=O)(=O)C(C)C)c2ccsc2n1 [Compound I-32, N4-(2-(isopropylsulfonyl)phenyl)-N2-(2-D3-methoxy-5-methyl-4-(piperidin-4-yl)phenyl)thieno[2,3-d]pyrimidin-2,4-diamine]"

# More lines, now with the values behind:
row,Structure (SMILES),IC50
1,"COc1cc(C2CCNCC2)c(C)cc1Nc1ncc(Br)c(Nc2ccccc2S(=O)(=O)C(C)C)n1 [Compound I-4, 5-bromo-N4-(2-(isopropylsulfonyl)phenyl)-N2-(2-D3-methoxy-5-methyl-4-(piperidin-4-yl)phenyl)pyrimidin-2,4-diamine]",1 to 10 nM
2,COc1cc(C2CCNCC2)c(C)cc1Nc1ncc(C#N)c(Nc2ccccc2S(=O)(=O)C(C)C)n1 [Compound I-6],1 to 10 nM
3,"COc1cc(C2CCNCC2)c(C)cc1Nc1ncc(Cl)c(Nc2ccccc2S(=O)(=O)C(C)C)n1 [Compound 45, reference compound]",10 to 100 nM
4,"COc1cc(C2CCNCC2)c(C#N)cc1Nc1ncc(Cl)c(Nc2ccccc2S(=O)(=O)C(C)C)n1 [Compound I-23, 5-((5-chloro-4-((2-(isopropylsulfonyl)phenyl)amino)pyrimidin-2-yl)amino)-4-D3-methoxy-2-(piperidin-4-yl)benzonitrile]",1 to 10 nM
5,"COc1cc(C2CCNCC2)c(C)cc1Nc1ncc(F)c(Nc2ccccc2S(=O)(=O)C(C)C)n1 [Compound I-2, 5-fluoro-N4-(2-(isopropylsulfonyl)phenyl)-N2-(2-D3-methoxy-5-methyl-4-(piperidin-4-yl)phenyl)pyrimidin-2,4-diamine]",1 to 10 nM
6,"COc1cc(C2CCNCC2)c(C)cc1Nc1ncc(OC)c(Nc2ccccc2S(=O)(=O)C(C)C)n1 [Compound I-7, N4-(2-(isopropylsulfonyl)phenyl)-5-methoxy-N2-(2-D3-methoxy-5-methyl-4-(piperidin-4-yl)phenyl)pyrimidin-2,4-diamine]",1 to 10 nM
